# From patent publication US20090118332A1, “Therapeutic Agents - 551” (AstraZeneca AB, priority 2006, published 2009)
# Biological target: T1, human Fatty Acid Synthase (Homo sapiens, UniProt P49327)
# T1 construct: made in house
# Assay: Human FAS enzyme assay (decrease in NADPH fluorescence)
# Assay type: biochemical
# Conditions: % inhibition at a concentration of 100 μmolar
# Outline: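 In-house human FAS was preincubated with compound and NADPH for 15 min at room temperature in 0.1 M Tris pH 7.5 with EDTA, glutathione and BSA. Malonyl CoA and acetyl CoA (500 μM and 150 μM in the added mix) were then added for 60 min. IC50 came from time-zero-subtracted NADPH fluorescence (340/460 nm).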
# T1 sequence (P49327 whole entry): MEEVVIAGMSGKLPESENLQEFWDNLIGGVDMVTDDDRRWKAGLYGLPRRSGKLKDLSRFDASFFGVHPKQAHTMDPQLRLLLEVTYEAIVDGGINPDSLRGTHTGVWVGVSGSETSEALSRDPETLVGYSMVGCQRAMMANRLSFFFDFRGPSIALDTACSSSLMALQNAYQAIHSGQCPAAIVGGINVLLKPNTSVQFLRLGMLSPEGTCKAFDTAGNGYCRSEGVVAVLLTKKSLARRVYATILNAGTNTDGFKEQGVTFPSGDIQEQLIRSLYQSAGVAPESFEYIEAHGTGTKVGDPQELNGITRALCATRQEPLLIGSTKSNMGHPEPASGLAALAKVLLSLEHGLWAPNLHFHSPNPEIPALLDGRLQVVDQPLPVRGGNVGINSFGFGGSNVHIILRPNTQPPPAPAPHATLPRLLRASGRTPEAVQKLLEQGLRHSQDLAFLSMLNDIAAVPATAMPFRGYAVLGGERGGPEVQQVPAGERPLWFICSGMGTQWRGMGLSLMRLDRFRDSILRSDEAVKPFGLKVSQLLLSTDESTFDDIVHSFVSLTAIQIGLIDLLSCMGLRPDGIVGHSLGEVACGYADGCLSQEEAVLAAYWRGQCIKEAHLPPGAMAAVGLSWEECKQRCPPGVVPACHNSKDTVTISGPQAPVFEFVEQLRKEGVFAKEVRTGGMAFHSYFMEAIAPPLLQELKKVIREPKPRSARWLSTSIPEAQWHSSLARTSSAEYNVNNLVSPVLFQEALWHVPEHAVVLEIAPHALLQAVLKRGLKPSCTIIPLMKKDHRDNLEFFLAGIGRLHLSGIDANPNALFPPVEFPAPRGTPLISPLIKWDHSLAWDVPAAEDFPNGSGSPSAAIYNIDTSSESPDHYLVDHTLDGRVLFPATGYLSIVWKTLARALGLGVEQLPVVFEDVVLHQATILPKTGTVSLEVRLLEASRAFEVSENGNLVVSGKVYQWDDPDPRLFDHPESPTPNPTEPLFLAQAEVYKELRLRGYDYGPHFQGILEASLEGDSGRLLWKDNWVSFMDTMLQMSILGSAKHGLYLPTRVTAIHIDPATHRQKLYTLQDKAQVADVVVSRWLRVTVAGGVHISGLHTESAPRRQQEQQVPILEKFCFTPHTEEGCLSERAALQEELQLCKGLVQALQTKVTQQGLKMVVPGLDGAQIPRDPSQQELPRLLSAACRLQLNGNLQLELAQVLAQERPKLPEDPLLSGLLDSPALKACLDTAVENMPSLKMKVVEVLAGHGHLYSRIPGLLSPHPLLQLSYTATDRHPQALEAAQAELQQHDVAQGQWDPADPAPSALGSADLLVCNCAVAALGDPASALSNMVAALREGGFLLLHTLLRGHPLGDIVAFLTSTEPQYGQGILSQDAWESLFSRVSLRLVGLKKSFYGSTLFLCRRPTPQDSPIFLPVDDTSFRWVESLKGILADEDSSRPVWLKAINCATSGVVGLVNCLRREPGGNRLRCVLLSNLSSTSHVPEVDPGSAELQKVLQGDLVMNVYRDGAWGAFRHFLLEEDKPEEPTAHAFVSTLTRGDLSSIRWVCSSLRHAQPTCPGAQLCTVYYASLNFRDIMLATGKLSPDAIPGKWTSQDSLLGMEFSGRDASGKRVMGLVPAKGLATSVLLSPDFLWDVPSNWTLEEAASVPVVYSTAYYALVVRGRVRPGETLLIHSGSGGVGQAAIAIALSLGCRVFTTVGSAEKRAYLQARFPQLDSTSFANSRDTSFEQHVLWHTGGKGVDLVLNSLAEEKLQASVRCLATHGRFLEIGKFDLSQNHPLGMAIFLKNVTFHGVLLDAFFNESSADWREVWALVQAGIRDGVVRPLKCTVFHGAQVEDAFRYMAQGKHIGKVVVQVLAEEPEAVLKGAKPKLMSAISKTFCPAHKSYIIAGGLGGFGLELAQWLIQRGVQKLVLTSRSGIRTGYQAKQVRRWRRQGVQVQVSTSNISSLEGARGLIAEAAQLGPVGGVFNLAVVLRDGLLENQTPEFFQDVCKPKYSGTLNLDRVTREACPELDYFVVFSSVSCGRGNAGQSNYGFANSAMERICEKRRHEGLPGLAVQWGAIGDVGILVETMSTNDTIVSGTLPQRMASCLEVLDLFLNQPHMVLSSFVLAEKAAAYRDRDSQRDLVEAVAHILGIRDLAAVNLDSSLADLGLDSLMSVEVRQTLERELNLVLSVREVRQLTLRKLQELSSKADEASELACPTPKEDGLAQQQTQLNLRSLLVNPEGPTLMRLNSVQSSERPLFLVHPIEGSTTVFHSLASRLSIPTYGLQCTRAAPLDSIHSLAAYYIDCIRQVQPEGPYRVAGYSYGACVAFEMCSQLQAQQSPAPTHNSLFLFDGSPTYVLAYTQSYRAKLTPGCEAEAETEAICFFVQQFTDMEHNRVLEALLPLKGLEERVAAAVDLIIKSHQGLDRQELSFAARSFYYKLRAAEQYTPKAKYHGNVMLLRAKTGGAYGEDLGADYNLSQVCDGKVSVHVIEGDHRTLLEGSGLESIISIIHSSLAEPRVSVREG
row,SMILES,inhibition at 100 µM [%]
1,"Cc1ccc(NC(=O)N2CCOCC2)cc1C(=O)N1CCC(c2ccc(C#N)cc2)CC1 [Example 28, N-[3-[4-(4-cyanophenyl)piperidine-1-carbonyl]-4-methyl-phenyl]morpholine-4-carboxamide]",83.1
2,"N#Cc1ccc(C2CCN(C(=O)c3cccc(NC(=O)NCc4ccccc4)c3)CC2)cc1 [Example 14, 1-benzyl-3-[3-[4-(4-cyanophenyl)piperidine-1-carbonyl]phenyl]urea]",90.1
3,"CCS(=O)(=O)N(C)CCNC(=O)Nc1cc(C(=O)N2CCC(c3ccc(C#N)cc3)CC2)ccc1C [Example 272, 3-[5-[4-(4-cyanophenyl)piperidine-1-carbonyl]-2-methyl-phenyl]-1-[2-(ethylsulfonyl-methyl-amino)ethyl]urea]",93.9
4,"Cc1ccc(C(=O)N2CCC(c3ccc(C#N)cc3)CC2)cc1NC(=O)NCCNc1ncnc2[nH]cnc12 [Example 95, 1-[5-[4-(4-cyanophenyl)piperidine-1-carbonyl]-2-methyl-phenyl]-3-[2-(9H-purin-6-ylamino)ethyl]urea]",94.4
5,"Cc1ccc(C(=O)N2CCC(c3ccc(C#N)cc3)CC2)cc1NC(=O)NC1CCCCNC1=O (stereo not shown) [Example 133, 1-[5-[4-(4-cyanophenyl)piperidine-1-carbonyl]-2-methyl-phenyl]-3-(2-oxoazepan-3-yl)urea]",81.2
6,"Cc1ccc(C(=O)N2CCC(c3ccc(C(F)(F)F)cc3)CC2)cc1NC(=O)NCCN [Example 342, 3-(2-aminoethyl)-1-[2-methyl-5-[4-[4-(trifluoromethyl)phenyl]piperidine-1-carbonyl]phenyl]urea]",82.8
7,"COc1ncccc1-c1cc(CNC(=O)Nc2cc(C(=O)N3CCC(c4ccc(C#N)cc4)CC3)ccc2C)on1 [Example 251, 1-[5-[4-(4-cyanophenyl)piperidine-1-carbonyl]-2-methyl-phenyl]-3-[[3-(2-methoxypyridin-3-yl)-1,2-oxazol-5-yl]methyl]urea]",88.4
8,"Cc1ccc(C(=O)N2CCC(c3ccc(C#N)cc3)CC2)cc1NC(=O)NCc1ccccc1F [Example 34, 1-[5-[4-(4-cyanophenyl)piperidine-1-carbonyl]-2-methyl-phenyl]-3-[(2-fluorophenyl)methyl]urea]",86.5
9,"Cc1ccc(C(=O)N2CCC(c3ccc(F)cc3)CC2)cc1NC(=O)NCCN(C)S(C)(=O)=O [Example 351, 1-[5-[4-(4-fluorophenyl)piperidine-1-carbonyl]-2-methyl-phenyl]-3-[2-(methyl-methylsulfonyl-amino)ethyl]urea]",88.9
10,"Cc1ccc(C(=O)N2CCC(c3ccc(C#N)cc3)CC2)cc1NC(=O)NCc1cc[nH]n1 [Example 289, 1-[5-[4-(4-cyanophenyl)piperidine-1-carbonyl]-2-methyl-phenyl]-3-(1H-pyrazol-3-ylmethyl)urea]",91.2
11,"Cc1ccc(C(=O)N2CCC(c3ccc(C#N)cc3)CC2)cc1NC(=O)NCCCN(C)C [Example 138, 1-[5-[4-(4-cyanophenyl)piperidine-1-carbonyl]-2-methyl-phenyl]-3-(3-dimethylaminopropyl)urea]",83.7
12,"CNC(=O)Nc1cc(C(=O)N2CCC(c3ccc(C#N)cc3)CC2)ccc1C [Example 361, 1-[5-[4-(4-cyanophenyl)piperidine-1-carbonyl]-2-methyl-phenyl]-3-methyl-urea]",101
13,"Cc1ccc(C(=O)N2CCC(c3ccc(C#N)cc3)CC2)cc1NC(=O)N1CC(O)C1 [Example 345, N-[5-[4-(4-cyanophenyl)piperidine-1-carbonyl]-2-methyl-phenyl]-3-hydroxy-azetidine-1-carboxamide]",96.5
14,"Cc1ccc(C(=O)N2CCC(c3ccc(C#N)cc3)CC2)cc1NC(=O)N[C@H]1CC[C@H](NS(=O)(=O)N(C)C)C1 [Example 323, 1-[5-[4-(4-cyanophenyl)piperidine-1-carbonyl]-2-methyl-phenyl]-3-[(1S,3S)-3-(dimethylsulfamoylamino)cyclopentyl]urea]",94
15,"Cc1ccc(C(=O)N2CCC(c3ccc(C#N)cc3)CC2)cc1NC(=O)NC1(C)CC1 [Example 389, 1-[5-[4-(4-cyanophenyl)piperidine-1-carbonyl]-2-methylphenyl]-3-(1-methylcyclopropyl)-urea]",78.6
16,"CNC(=O)Nc1ccc(C)c(C(=O)N2CCC(c3ccc(C#N)cc3)CC2)c1 [Example 18, 3-[3-[4-(4-cyanophenyl)piperidine-1-carbonyl]-4-methyl-phenyl]-1-methyl-urea]",75.9
17,"Cc1ccc(NC(=O)NCCCS(C)(=O)=O)cc1C(=O)N1CCC(c2ccc(C#N)cc2)CC1 [Example 278, 1-[3-[4-(4-cyanophenyl)piperidine-1-carbonyl]-4-methyl-phenyl]-3-(3-methylsulfonylpropyl)urea]",95.8
18,"COCCNC(=O)Nc1ccc(C)c(C(=O)N2CCC(c3ccc(C#N)cc3)CC2)c1 [Example 417, 1-[3-[4-(4-cyanophenyl)piperidine-1-carbonyl]-4-methylphenyl]-3-(2-methoxyethyl)urea]",85.1
19,"Cc1ccc(C(=O)N2CCC(c3ccc(C#N)cc3)CC2)cc1NC(=O)NC1CCCC1 [Example 15, 1-[5-[4-(4-cyanophenyl)piperidine-1-carbonyl]-2-methyl-phenyl]-3-cyclopentyl-urea]",91.3
20,"Cc1ccc(C(=O)N2CCC(c3ccc(C#N)cc3)CC2)cc1NC(=O)NC1CCNCC1 [Example 211, 1-[5-[4-(4-cyanophenyl)piperidine-1-carbonyl]-2-methyl-phenyl]-3-(4-piperidyl)urea]",87.4
21,"COC(C)(C)CNC(=O)Nc1cc(C(=O)N2CCC(c3ccc(C#N)cc3)CC2)ccc1C [Example 159, 1-[5-[4-(4-cyanophenyl)piperidine-1-carbonyl]-2-methyl-phenyl]-3-(2-methoxy-2-methyl-propyl)urea]",88
22,"CCS(=O)(=O)NCCCNC(=O)Nc1cc(C(=O)N2CCC(c3ccc(C#N)cc3)CC2)ccc1C [Example 216, 3-[5-[4-(4-cyanophenyl)piperidine-1-carbonyl]-2-methyl-phenyl]-1-[3-(ethylsulfonylamino)propyl]urea]",92.4
23,"Cc1ccc(C(=O)N2CCC(c3ccc(C#N)cc3)CC2)cc1NC(=O)NC1CCN(C(=O)N(C)C)CC1 [Example 284, 4-[[5-[4-(4-cyanophenyl)piperidine-1-carbonyl]-2-methyl-phenyl]carbamoylamino]-N,N-dimethyl-piperidine-1-carboxamide]",106
24,"Cc1ccc(C(=O)N2CCC(c3ccc(C#N)cc3)CC2)cc1NC(=O)NC1CCOCC1 [Example 162, 1-[5-[4-(4-cyanophenyl)piperidine-1-carbonyl]-2-methyl-phenyl]-3-(oxan-4-yl)urea]",84.2
25,"Cc1cc(CNC(=O)Nc2cc(C(=O)N3CCC(c4ccc(C#N)cc4)CC3)ccc2C)no1 [Example 246, 1-[5-[4-(4-cyanophenyl)piperidine-1-carbonyl]-2-methyl-phenyl]-3-[(5-methyl-1,2-oxazol-3-yl)methyl]urea]",105
26,"Cc1ccc(C(=O)N2CCC(O)(c3ccc(C#N)cc3)CC2)cc1NC(=O)NC(C)C [Example 50, 1-[5-[4-(4-cyanophenyl)-4-hydroxy-piperidine-1-carbonyl]-2-methyl-phenyl]-3-propan-2-yl-urea]",81.2
27,"Cc1ccc(C(=O)N2CCC(c3ccc(C#N)cc3)CC2)cc1NC(=O)NCCC1CCCN1C (stereo not shown) [Example 144, 1-[5-[4-(4-cyanophenyl)piperidine-1-carbonyl]-2-methyl-phenyl]-3-[2-(1-methylpyrrolidin-2-yl)ethyl]urea]",81.7
28,"Cc1ccc(C(=O)N2CCC(c3ccc(C#N)cc3)CC2)cc1NC(=O)NC(C)COc1ccccc1 (racemic) [Example 253, (RS)-1-[5-[4-(4-cyanophenyl)piperidine-1-carbonyl]-2-methyl-phenyl]-3-(1-phenoxypropan-2-yl)urea]",90.9
29,"Cc1ccc(NC(=O)NCCc2ccccc2)cc1C(=O)N1CCC(c2ccc(C#N)cc2)CC1 [Example 26, 1-[3-[4-(4-cyanophenyl)piperidine-1-carbonyl]-4-methyl-phenyl]-3-phenethyl-urea]",82.9
30,"Cc1ccc(C(=O)N2CCC(c3ccc(F)cc3)CC2)cc1NC(=O)NC(C)C [Example 325, 1-[5-[4-(4-fluorophenyl)piperidine-1-carbonyl]-2-methyl-phenyl]-3-propan-2-yl-urea]",72.6

# Same assay, conditions: FAS enzyme assay, IC50 from fitted sigmoid curves
row,SMILES,"IC50, inhibition of human Fatty Acid Synthase"
1,COC(=O)[C@H](Cc1cn(C)cn1)NC(=O)Nc1cc(C(=O)N2CCC(c3ccc(C#N)cc3)CC2)ccc1C [Methyl (2S)-2-[[5-[4-(4-cyanophenyl)piperidine-1-carbonyl]-2-methylphenyl]carbamoylamino]-3-(1-methylimidazol-4-yl)propanoate],do not have IC50s in the range of about 0.001 μM to about 30 μM
2,COc1ccc(NC(=O)NC(C)C)cc1C(=O)N1CCC(c2ccc(C#N)cc2)CC1 [3-[3-[4-(4-cyanophenyl)piperidine-1-carbonyl]-4-methoxyphenyl]-1-propan-2-ylurea],do not have IC50s in the range of about 0.001 μM to about 30 μM
3,Cc1ccc(C(=O)N2CCC(c3ccccc3C#N)CC2)cc1NC(=O)NC(C)C [1-[5-[4-(2-cyanophenyl)piperidine-1-carbonyl]-2-methylphenyl]-3-propan-2-ylurea],do not have IC50s in the range of about 0.001 μM to about 30 μM
4,COC(=O)C(Cc1ccc(F)cc1)NC(=O)Nc1cc(C(=O)N2CCC(c3ccc(C#N)cc3)CC2)ccc1C (stereo not shown) [Methyl 2-[[5-[4-(4-cyanophenyl)piperidine-1-carbonyl]-2-methylphenyl]carbamoylamino]-3-(4-fluorophenyl)propanoate],do not have IC50s in the range of about 0.001 μM to about 30 μM
